Converted amounts (≈) assume the structure as drawn.
Legend:
[1] = Test for concentration in blood (plasma of mouse, bioassay); assay type: in vivo; conditions: sc, subcutaneous, 2 mg/mouse, average on five mice; for Cmax: bioassay with Comamonas terrigena B-996, read-out: Maximum concentration; for half-life: read-out: Half period (period that elapsed until the concentration was reduced to half)
Method: Typical species of the compounds of formula (VI-b) were each administered subcutaneously to five mice in a dose of 2 mg. After 5 minutes from the administration, a small amount of blood was periodically drawn from the eyes of the mice into a heparinized capillary tube, and centrifuged. The concentration of the compound in the supernatant liquid (plasma) was determined by a bioassay method using Comamonas terri^gena B-996.

[2] = tested on: Staphylococcus aureus Smith strain; assay: Infection treating test (CD50); assay type: in vivo; conditions: in Mus musculus, sc, 2 h, mice infected intraperitoneally with 5 x 10^5 cells per mouse, subcutaneous injection two hours after the infection
Method: The in vivo activities of the compounds of formula (VI-b) were determined by using mice (five per group, male DDY mice, Shizuoka) which had been intraperitoneally infected with Staphylococcus aureus Smith strain in an amount of 5 x 10^5 cells per mouse. Two hours after the infection, an injection containing a sodium salt of each of the compounds of formula (VI-b) was subcutaneously administered to the mice.

[3] = tested on: Escherichia coli K-12; assay: MIC, agar dilution assay; assay type: cell-based; conditions: Escherichia coli, K12, 20 h, 35°C for 20 hours, read-out: Antibiotic Activity minimum inhibitory concentration
Method: (§1) The antibiotic activities shown in Tables 1-1 to 1-9 above were determined in the following manner. The minimum inhibitory concentrations of the compounds of formula (VI-b) in Tables I-1 to 1-8 and the known compounds in Table 1-9 on the various microorganisms shown in the above tables were measured by an agar dilution assay method using a brain heart infusion agar medium "Difco" (a product of Difco Laboratories Inc.). A sample of the test compound was dissolved in sterile distilled water and diluted to prepare a twofold dilution series of the compound solution. In a betri dish of 9 cm in diameter, 1 ml of the compound solution was added to 9 ml of a molten sterile heart infusion agar medium (Difco Laboratories Inc.) at. about 60°C to prepare an agar plate containing the compound. An overnight culture of each test organism indicated in the above table, which was prepared by stationary cultivation in trypto-soy broth (Eiken Chemi. Co., Ltd.) at 35°C for 18 to 20 hours, was diluted with the trypto-soy broth to give approximately 10^8 cells/ml and the diluted inoculum was inoculated in the agar plate. After cultivating the plate at 35°C for 20 hours, the growth of the organism was observed. The minimum concentration of the compound at which no growth of the microorganism was noted was determined, and defined as the minimum inhibitory concentration of the test compound.

[4] = tested on: Staphylococcus aureus Smith; assay: MIC, agar dilution assay; assay type: cell-based; conditions: Staphylococcus aureus, 20 h, 35°C for 20 hours, read-out: Antibiotic Activity minimum inhibitory concentration
Method: as §1

[5] = tested on: Proteus mirabilis P6; assay: MIC, agar dilution assay; assay type: cell-based; conditions: P6, 20 h, 35°C for 20 hours, read-out: Antibiotic Activity minimum inhibitory concentration
Method: as §1

[6] = tested on: Staphylococcus epidermidis; assay: MIC, agar dilution assay; assay type: cell-based; conditions: 20 h, 35°C for 20 hours, read-out: Antibiotic Activity minimum inhibitory concentration
Method: as §1

[7] = tested on: Alcaligenes faecalis A 1; assay: MIC, agar dilution assay; assay type: cell-based; conditions: Alcaligenes faecalis, A1, 20 h, 35°C for 20 hours, read-out: Antibiotic Activity minimum inhibitory concentration
Method: as §1

[8] = tested on: Citrobacter freundii GN 346; assay: MIC, agar dilution assay; assay type: cell-based; conditions: GN346, 20 h, 35°C for 20 hours, read-out: Antibiotic Activity minimum inhibitory concentration
Method: as §1

[9] = tested on: Enterobacter aerogenes E19; assay: MIC, agar dilution assay; assay type: cell-based; conditions: Klebsiella aerogenes, E19, 20 h, 35°C for 20 hours, read-out: Antibiotic Activity minimum inhibitory concentration
Method: as §1

[10] = tested on: Escherichia coli RGN 823; assay: MIC, agar dilution assay; assay type: cell-based; conditions: RGN823, 20 h, 35°C for 20 hours, read-out: Antibiotic Activity minimum inhibitory concentration
Method: as §1

[11] = tested on: Comamonas terrigena B-996; assay: MIC, agar dilution assay; assay type: cell-based; conditions: Comamonas terrigena, B996, 20 h, 35°C for 20 hours, read-out: Antibiotic Activity minimum inhibitory concentration
Method: as §1

[12] = tested on: Sarcina lutea; assay: MIC, agar dilution assay; assay type: cell-based; conditions: Micrococcus luteus, 20 h, 35°C for 20 hours, read-out: Antibiotic Activity minimum inhibitory concentration
Method: as §1

[13] = tested on: Enterobacter sp. E8; assay: MIC, agar dilution assay; assay type: cell-based; conditions: Enterobacter, SP.E8, 20 h, 35°C for 20 hours, read-out: Antibiotic Activity minimum inhibitory concentration
Method: as §1

[14] = tested on: Bacillus subtilis ATCC 6633; assay: MIC, agar dilution assay; assay type: cell-based; conditions: Bacillus subtilis, ATCC6633, 20 h, 35°C for 20 hours, read-out: Antibiotic Activity minimum inhibitory concentration
Method: as §1

[15] = tested on: Staphylococcus aureus FDA 209P; assay: MIC, agar dilution assay; assay type: cell-based; conditions: Staphylococcus aureus, FDA209P, 20 h, 35°C for 20 hours, read-out: Antibiotic Activity minimum inhibitory concentration
Method: as §1

[16] = tested on: Klebsiella pneumoniae K-13; assay: MIC, agar dilution assay; assay type: cell-based; conditions: K13, 35°C for 20 hours, read-out: Antibiotic Activity minimum inhibitory concentration
Method: as §1

[17] = tested on: Staphylococcus aureus Russell; assay: MIC, agar dilution assay; assay type: cell-based; conditions: Staphylococcus aureus, 20 h, 35°C for 20 hours, read-out: Antibiotic Activity minimum inhibitory concentration
Method: as §1

[18] = tested on: Enterobacter cloacae 45; assay: MIC, agar dilution assay; assay type: cell-based; conditions: Enterobacter cloacae, 45, 20 h, 35°C for 20 hours, read-out: Antibiotic Activity minimum inhibitory concentration
Method: as §1

Row | Compound | Cmax [1] | half-life [1] | ED50 [2] | further results
1 | CC(O)[C@H]1C(=O)N2C(C(=O)O)=C(Sc3ccncc3)C[C@H]12 (relative stereo) [Table II r7 R1=-OH R2=[drawing] M=H*] | 103 µg/mL | 18 min | 0.125 mg/kg | –
2 | CC(O)[C@@H]1C(=O)N2C(C(=O)O)=C(Sc3ccncc3)C[C@H]12 (relative stereo) [Table II r8 R1=-OH R2=[drawing] M=H**] | 29 µg/mL | 13.5 min | 0.125 mg/kg | –
3 | CC(O)[C@H]1C(=O)N2C(C(=O)O)=C(Sc3ncccn3)C[C@H]12 (relative stereo) [Table II r12 R1=-OH R2=[drawing] M=H*] | 54 µg/mL | 25 min | 0.25 mg/kg | –
4 | CC(O)[C@@H]1C(=O)N2C(C(=O)O)=C(Sc3ncccn3)C[C@H]12 (relative stereo) [Table II r13 R1=-OH R2=[drawing] M=H**] | 23.3 µg/mL | 19 min | 0.25 mg/kg | –
5 | CC(=O)NCCSC1=C(C(=O)O)N2C(=O)[C@H](C(C)O)[C@H]2C1 (stereo partly shown) [PS-3A.Na, 3-(2-acetamidoethylthio)-6-(1-hydroxyethyl)-7-oxo-1-azabicyclo[3.2.0]hept-2-ene-2-carboxylic acid, reference compound] | – | – | 4 mg/kg | –
6 | CC(=O)NCCSC1=C(C(=O)O)N2C(=O)C(C(C)O)C2C1 (stereo not shown) [PS-3B.Na, 3-(2-acetamidoethylthio)-6-(1-hydroxyethyl)-7-oxo-1-azabicyclo[3.2.0]hept-2-ene-2-carboxylic acid, reference compound] | 26.3 µg/mL | 5 min | – | –
7 | CCC1C(=O)N2C(C(=O)O)=C(SCCNC(C)=O)CC12 (stereo not shown) [PS-5.Na, 3-(2-acetamidoethylthio)-6-ethyl-7-oxo-1-azabicyclo[3.2.0]hept-2-ene-2-carboxylic acid, reference compound] | 40 µg/mL | 7 min | 1 mg/kg | –
8 | CC(=O)NCCSC1=C(C(=O)O)N2C(=O)C(C(C)C)C2C1 (stereo not shown) [PS-6.Na, 3-(2-acetamidoethylthio)-6-isopropyl-7-oxo-1-azabicyclo[3.2.0]hept-2-ene-2-carboxylic acid, reference compound] | 23.8 µg/mL | 5 min | 8 mg/kg | –
9 | CC(C)C1C(=O)N2C(C(=O)O)=C(SCCN(C)C)CC12 (stereo not shown) [R1=-CH3 R2=-CH2CH2N(CH3)2 M=H] | 22 µg/mL | 6.1 min | 2 mg/kg | –
10 | CCC1C(=O)N2C(C(=O)O)=C(SCCN(C)C)CC12 (stereo not shown) [R1=H R2=-CH2CH2N(CH3)2 M=H] | 36.2 µg/mL | 6 min | 0.25 mg/kg | –
11 | CCC1C(=O)N2C(C(=O)O)=C(SCCNC(=O)Cc3ccccc3)CC12 (stereo not shown) [R1=H R2=-CH2CH2NHCOCH2-[drawing] M=Na] | 2.8 µg/mL | 6 min | – | –
12 | CCC1C(=O)N2C(C(=O)O)=C(SCCO)CC12 (stereo not shown) [R1=H R2=-CH2CH2OH M=Na] | 36.9 µg/mL | 6 min | 1 mg/kg | –
13 | CC(C)C1C(=O)N2C(C(=O)O)=C(Sc3ccccn3)CC12 (stereo not shown) [Table I-2 R1=-CH3] | – | – | – | MIC [3]: 12.5 mg/L (≈ 41.1 µM); MIC [4]: 0.013 mg/L (≈ 0.0427 µM); MIC [5]: 6.25 mg/L (≈ 20.5 µM); MIC [6]: 0.05 mg/L (≈ 0.164 µM); MIC [7]: 0.2 mg/L (≈ 0.657 µM); MIC [8]: 50 mg/L (≈ 164 µM); MIC [9]: 50 mg/L (≈ 164 µM); MIC [10]: 12.5 mg/L (≈ 41.1 µM); MIC [11]: 0.007 mg/L (≈ 0.023 µM); MIC [12]: 0.004 mg/L (≈ 0.0131 µM); MIC [13]: 25 mg/L (≈ 82.1 µM); MIC [14]: 0.05 mg/L (≈ 0.164 µM); MIC [15]: 0.007 mg/L (≈ 0.023 µM); MIC [16]: 50 mg/L (≈ 164 µM); MIC [17]: 0.013 mg/L (≈ 0.0427 µM); MIC [18]: > 100 mg/L
14 | CCC1C(=O)N2C(C(=O)O)=C(Sc3ccccn3)CC12 (stereo not shown) [Table I-2 R1=H] | – | – | – | MIC [3]: 6.25 mg/L (≈ 21.5 µM); MIC [4]: 0.012 mg/L (≈ 0.0413 µM); MIC [5]: 3.13 mg/L (≈ 10.8 µM); MIC [6]: 0.012 mg/L (≈ 0.0413 µM); MIC [7]: 0.1 mg/L (≈ 0.344 µM); MIC [8]: 25 mg/L (≈ 86.1 µM); MIC [9]: 25 mg/L (≈ 86.1 µM); MIC [10]: 6.25 mg/L (≈ 21.5 µM); MIC [11]: 0.003 mg/L (≈ 0.0103 µM); MIC [12]: 0.0008 mg/L (≈ 0.00276 µM); MIC [13]: 12.5 mg/L (≈ 43.1 µM); MIC [14]: 0.012 mg/L (≈ 0.0413 µM); MIC [15]: 0.006 mg/L (≈ 0.0207 µM); MIC [16]: 25 mg/L (≈ 86.1 µM); MIC [17]: 0.012 mg/L (≈ 0.0413 µM); MIC [18]: 50 mg/L (≈ 172 µM)
